From PubChem BioAssay (NCI)
Values joined by “and” are separate entries in the source; they are usually repeats but may differ in a detail not shown here. Identical values can stand only once.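 Method: 48-hour compound exposure of cells in 96-well plates, five concentrations, linear interpolation of endpoints. GI50 marks 50% less growth. TGI is the concentration that stops growth completely.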

How the values were obtained:
Experiment in all cases: DTP human tumour cell line panel, 48 h
[1] = test system: 786-0 renal
[2] = test system: A498 renal
[3] = test system: A549 NSCLC
[4] = test system: ACHN renal
[5] = test system: CCRF-CEM leukemia
[6] = test system: COLO 205 colon
[7] = test system: DU-145 prostate
[8] = test system: EKVX NSCLC
[9] = test system: HCC-2998 colon
[10] = test system: HCT-116 colon
[11] = test system: HCT-15 colon
[12] = test system: HL-60(TB) leukemia
[13] = test system: HOP-62 NSCLC
[14] = test system: HOP-92 NSCLC
[15] = test system: HT29 colon
[16] = test system: IGROV1 ovarian
[17] = test system: K-562 leukemia
[18] = test system: KM12 colon
[19] = test system: LOX IMVI melanoma
[20] = test system: M14 melanoma
[21] = test system: MALME-3M melanoma
[22] = test system: MCF7 breast
[23] = test system: MDA-MB-231 breast
[24] = test system: MDA-MB-435
[25] = test system: MDA-N
[26] = test system: MOLT-4 leukemia
[27] = test system: NCI-H226 lung
[28] = test system: NCI-H23 lung
[29] = test system: NCI-H460 lung
[30] = test system: NCI-H522 lung
[31] = test system: NCI/ADR-RES ovarian
[32] = test system: OVCAR-3 ovarian
[33] = test system: OVCAR-4 ovarian
[34] = test system: OVCAR-5 ovarian
[35] = test system: OVCAR-8 ovarian
[36] = test system: PC-3 prostate
[37] = test system: RXF 393 renal
[38] = test system: SF-268 CNS
[39] = test system: SF-295 CNS
[40] = test system: SF-539 CNS
[41] = test system: SK-MEL-2 melanoma
[42] = test system: SK-MEL-28 melanoma
[43] = test system: SK-MEL-5 melanoma
[44] = test system: SK-OV-3 ovarian
[45] = test system: SN12C renal
[46] = test system: SNB-19 CNS
[47] = test system: SR leukemia
[48] = test system: SW-620 colon
[49] = test system: T-47D breast
[50] = test system: TK-10 renal
[51] = test system: U251 CNS
[52] = test system: UACC-257 melanoma
[53] = test system: UACC-62 melanoma
[54] = test system: UO-31 renal
[55] = test system: BT-549 breast
[56] = test system: HS 578T breast
[57] = test system: SNB-75 CNS

For CC(=O)OCC1OC(n2c3c(c(-c4cccc5ccccc45)c(C#N)c2=S)CCCC3)C(OC(C)=O)C(OC(C)=O)C1OC(C)=O (stereo unspecified), the TGI [1] was over 100 µM, the TGI [2] was over 100 µM and the TGI [3] was over 100 µM. The TGI [4] was over 100 µM, the TGI [5] was over 100 µM and the TGI [6] was over 100 µM. The TGI [7] was over 100 µM, the TGI [8] was over 100 µM and the TGI [9] was over 100 µM. The TGI [10] was over 100 µM, the TGI [11] was over 100 µM and the TGI [12] was over 100 µM. For the same compound, the TGI [13] was over 100 µM, the TGI [14] was over 100 µM and the TGI [15] was over 100 µM. It also gave a TGI [16] of over 100 µM, a TGI [17] of over 100 µM and a TGI [18] of over 100 µM. It also gave a TGI [19] of over 100 µM, a TGI [20] of over 100 µM and a TGI [21] of over 100 µM. The TGI [22] was over 100 µM, the TGI [23] was over 100 µM and the TGI [24] was over 100 µM. The TGI [25] was over 100 µM, the TGI [26] was over 100 µM and the TGI [27] was over 100 µM. It also gave a TGI [28] of over 100 µM, a TGI [29] of over 100 µM and a TGI [30] of over 100 µM. For the same compound, the TGI [31] was over 100 µM, the TGI [32] was over 100 µM and the TGI [33] was over 100 µM. It also gave a TGI [34] of over 100 µM, a TGI [35] of over 100 µM and a TGI [36] of over 100 µM. The TGI [37] was over 100 µM, the TGI [38] was over 100 µM and the TGI [39] was over 100 µM. For the same compound, the TGI [40] was over 100 µM, the TGI [41] was over 100 µM and the TGI [42] was over 100 µM. It also gave a TGI [43] of over 100 µM, a TGI [44] of over 100 µM and a TGI [45] of over 100 µM. It also gave a TGI [46] of over 100 µM, a TGI [47] of over 100 µM and a TGI [48] of over 100 µM. The TGI [49] was over 100 µM, the TGI [50] was over 100 µM and the TGI [51] was over 100 µM. The TGI [52] was over 100 µM, the TGI [53] was over 100 µM and the TGI [54] was 62.2 µM.

For CC(CN(C)C)Nc1c2ccccc2nc2cccc([N+](=O)[O-])c12 (stereo unspecified), the GI50 [55] was 0.54 µM, the TGI [55] was 1.9 µM and the TGI [5] was 2.87 µM. The GI50 [7] was 0.0747 µM and < 0.0219 µM, the TGI [7] was 11.9 µM and the GI50 [10] was 0.026 µM and < 0.01 µM. The GI50 [12] was 0.0182 µM, the GI50 [13] was 0.12 µM and < 0.013 µM and the GI50 [14] was 0.226 µM and 0.0258 µM. The GI50 [56] was under 0.01 µM, the TGI [56] was under 0.01 µM and the TGI [15] was 1.02 µM and 0.413 µM. The TGI [16] was 10.1 µM, the TGI [17] was 0.764 µM and the TGI [22] was 0.636 µM. The TGI [23] was 2.64 µM, the TGI [25] was 0.748 µM and the GI50 [29] was 0.0248 µM and < 0.0111 µM. For the same compound, the TGI [29] was 0.206 µM and 0.711 µM, the TGI [30] was 0.111 µM and the TGI [33] was 0.61 µM and 5.21 µM. For the same compound, the TGI [37] was 14.9 µM, the GI50 [39] was 0.0968 µM and < 0.01 µM and the GI50 [40] was 0.337 µM and < 0.0378 µM. The TGI [40] was 1.31 µM, the GI50 [43] was 0.0715 µM and < 0.01 µM and the GI50 [57] was 0.342 µM and 0.0431 µM. The TGI [57] was 1.59 µM and 0.268 µM, the GI50 [48] was 0.306 µM and the TGI [48] was 11.8 µM. The GI50 [54] was 0.188 µM and < 0.0237 µM and the TGI [54] was 0.457 µM and 0.887 µM.
